Measurements taken from ChEMBL document CHEMBL4270488, “Antibacterial Compounds from Marine Bacteria, 2010-2015” (J Nat Prod, 2017).
Values after ≈ are worked out from the molar mass of the structure shown. *1 amine or outer side, *2 acyl side, *3 side chain or, on linkers, in order; H or OH if unused. Where a SMILES comes first, the peptide text is derived from it. Bridges are numbered along the chain shown (N, C = ends). Roman numbers before positions name the chains, in order. [ ]: non-standard residue; d: D form. Actinocin(1to9) = Cc1c2oc3c(C)ccc(C(=O)[*:2])c3nc-2c(C(=O)[*:1])c(N)c1=O; Pro(4-oxo) = O=C1CN[C@H](C(=O)O)C1; NMeV = CN[C@H](C(=O)O)C(C)C; Sar = CNCC(=O)O

Assays:
[1] = system: Enterococcus faecalis; assay: Antibacterial activity against Enterococcus faecalis ATCC 29212; assay type: functional
[2] = system: Staphylococcus aureus; assay: Antibacterial activity against Staphylococcus aureus ATCC 29213; assay type: functional
[3] = system: Bacillus thuringiensis; assay: Antibacterial activity against Bacillus thuringiensis SCSIO BT01; assay type: functional
[4] = system: Pseudomonas aeruginosa; assay: Antibacterial activity against Pseudomonas aeruginosa ATCC 25916 by broth microdilution method; assay type: functional
[5] = system: Staphylococcus aureus; assay: Antibacterial activity against drug-resistant Staphylococcus aureus by broth microdilution method; assay type: functional
[6] = system: Escherichia coli; assay: Antibacterial activity against drug-resistant Escherichia coli by broth microdilution method; assay type: functional
[7] = system: Bacillus subtilis; assay: Antibacterial activity against Bacillus subtilis ATCC 63501 by broth microdilution method; assay type: functional
[8] = system: Escherichia coli; assay: Antibacterial activity against Escherichia coli ATCC 25922 by broth microdilution method; assay type: functional
[9] = system: Staphylococcus aureus; assay: Antibacterial activity against Staphylococcus aureus ATCC 25925 by broth microdilution method; assay type: functional
[10] = system: Pseudomonas aeruginosa; assay: Antibacterial activity against Pseudomonas aeruginosa incubated for 24 hrs by standard broth dilution assay; assay type: functional
[11] = system: Escherichia coli; assay: Antibacterial activity against Escherichia coli incubated for 24 hrs by standard broth dilution assay; assay type: functional
[12] = system: Bacillus subtilis; assay: Antibacterial activity against Bacillus subtilis incubated for 24 hrs by standard broth dilution assay; assay type: functional
[13] = system: Staphylococcus aureus; assay: Antibacterial activity against Staphylococcus aureus incubated for 24 hrs by standard broth dilution assay; assay type: functional
[14] = system: Bacillus subtilis; assay: Antibacterial activity against Bacillus subtilis CMCC63501; assay type: functional
[15] = system: Bacillus subtilis; assay: Antibacterial activity against Bacillus subtilis ATCC […] incubated for 16 hrs; assay type: functional
[16] = system: Mycobacterium tuberculosis; assay: Antibacterial activity against Mycobacterium tuberculosis H37Rv ATCC 27294 incubated […]; assay type: functional
[17] = system: Mycobacterium tuberculosis; assay: Antibacterial activity against Mycobacterium tuberculosis H37Rv ATCC 27294 incubated for 10 days by GFP based fluorescence assay; assay type: functional; conditions: H37Rv ATCC 27294, 240 h
[18] = Inhibition of Staphylococcus aureus RNA polymerase
[19] = Inhibition of Escherichia coli RNA polymerase
[20] = system: Staphylococcus aureus; assay: Antibacterial activity against Staphylococcus aureus incubated for 18 hrs; assay type: functional
[21] = system: Bacillus subtilis; assay: Antibacterial activity against Bacillus subtilis DSM 347 incubated for 5 hrs by resazurin dye reduction based assay; assay type: functional, organism-based; conditions: DSM 347, 5 h
[22] = system: Staphylococcus epidermidis; assay: Antibacterial activity against Staphylococcus epidermidis DSM 20044 incubated for 5 hrs by resazurin dye reduction based assay; assay type: functional, organism-based; conditions: DSM 20044, 5 h
[23] = system: Staphylococcus aureus; assay: Antibacterial activity against methicillin-resistant Staphylococcus aureus ATCC 43300 measured after overnight incubation by microdilution method; assay type: functional
[24] = system: Bacillus subtilis; assay: Antibacterial activity against Bacillus subtilis 769 measured after overnight incubation by microdilution method; assay type: functional
[25] = system: Staphylococcus aureus; assay: Antibacterial activity against Staphylococcus aureus UST950701-005 measured after overnight incubation by microdilution method; assay type: functional
[26] = system: Staphylococcus haemolyticus; assay: Antibacterial activity against Staphylococcus haemolyticus UST950701-004 measured after overnight incubation by microdilution method; assay type: functional
[27] = system: Bacillus subtilis; assay: Antibacterial activity against Bacillus subtilis SCSIO BS01; assay type: functional

Cc1cc(=O)[nH]c2c1C(=O)c1c(C)cc(=O)n(C)c1C2=O
MIC [1]: 1 to 4 µg/mL (≈ 3.52 to 14.1 µM) | MIC [2]: 1 to 4 µg/mL (≈ 3.52 to 14.1 µM) | MIC [3]: 1 to 4 µg/mL (≈ 3.52 to 14.1 µM)

C[C@@H]1C/C=C2\SC[C@@H](NC(=O)c3coc(n3)C[C@@H](O)C[C@H](O)/C=C/C=C/CNC2=O)C(=O)O1
MIC [4]: 32 µg/mL (≈ 67 µM) | MIC [5]: 8 to 16 µg/mL (≈ 16.8 to 33.5 µM) | MIC [6]: 32 µg/mL (≈ 67 µM) | MIC [7]: 8 to 16 µg/mL (≈ 16.8 to 33.5 µM) | MIC [8]: 32 µg/mL (≈ 67 µM) | MIC [9]: 8 to 16 µg/mL (≈ 16.8 to 33.5 µM)

CCCCCCCCCCCC(=O)N(CCO)CCO
MIC [10]: 0.02 to 0.13 µg/mL (≈ 0.0696 to 0.452 µM) | MIC [11]: 0.02 to 0.13 µg/mL (≈ 0.0696 to 0.452 µM) | MIC [12]: 0.02 to 0.13 µg/mL (≈ 0.0696 to 0.452 µM) | MIC [13]: 0.02 to 0.13 µg/mL (≈ 0.0696 to 0.452 µM)

COC(=O)N[C@H]1[C@@H](C)O[C@@H](O[C@H]2C/C=C(\C)[C@@H]3C=C[C@@H]4[C@@H](O[C@H]5C[C@@H](O[C@H]6C[C@@H](O)[C@@H](O[C@@H]7C[C@@H](O)[C@@H](OC)[C@H](C)O7)[C@H](C)O6)[C@@H](O)[C@H](C)O5)[C@@H](C)C[C@H](C)[C@H]4[C@]3(C)C(=O)C3=C(O)[C@@]4(C[C@@H](C)C(CO)=C[C@H]4/C=C/2C)OC3=O)C[C@]1(C)[N+](=O)[O-]
MIC [14]: 1.6 to 3.1 µg/mL (≈ 1.35 to 2.61 µM) | MIC [15]: 1.5 to 12 µg/mL (≈ 1.26 to 10.1 µM) | MIC [16]: 16 to 32 µg/mL (≈ 13.5 to 27 µM)

Cc1c2oc3c(C)ccc(C(=O)N[C@@H]4C(=O)N[C@H](C(C)C)C(=O)N5CCC[C@H]5C(=O)N(C)CC(=O)N(C)[C@@H](C(C)C)C(=O)O[C@@H]4C)c3nc-2c(C(=O)N[C@@H]2C(=O)N[C@H](C(C)C)C(=O)N3CCC[C@H]3C(=O)N(C)CC(=O)N(C)[C@@H](C(C)C)C(=O)O[C@@H]2C)c(N)c1=O [DACTINOMYCIN] (I: T[dV]P[Sar][NMeV] / II: T[dV]P[Sar][NMeV]; ester I:1-I:C, II:1-II:C; linker I:N-II:N via Actinocin(1to9))
MIC [17]: 1 to 8 µg/mL (≈ 0.797 to 6.37 µM)

Cc1c2oc3c(C)ccc(C(=O)N[C@@H]4C(=O)N[C@H](C(C)C)C(=O)N5CCC[C@H]5C(=O)N(C)CC(=O)N(C)[C@@H](C(C)C)C(=O)O[C@@H]4C)c3nc-2c(C(=O)N[C@@H]2C(=O)N[C@H](C(C)C)C(=O)N3CC(O)C[C@H]3C(=O)N(C)CC(=O)N(C)[C@@H](C(C)C)C(=O)O[C@@H]2C)c(N)c1=O (stereo partly drawn)
MIC [17]: 1 to 8 µg/mL (≈ 0.787 to 6.29 µM)

CC[C@H](C)[C@H]1NC(=O)[C@@H](NC(=O)[C@H](C)[C@H](O)C(C)C)[C@@H](C)OC(=O)[C@H]2NC(=O)[C@@H](C(C)C)NC(=O)[C@@H](Cc3ccccc3)N(C)C(=O)[C@@H](NC1=O)c1ccc(cc1)O[C@H](C)[C@@](O)(CCl)/C=C\C(=O)NCC(=O)O2
IC50 [18]: 200 to 4000 nM | IC50 [19]: 200 to 2000 nM

C[C@@H]1O[C@](C)(C(=O)O)O[C@H]1/C=C/C=C/C=C/C(=O)O[C@H]1CC[C@H](c2ccc3c(c2O)C(=O)c2cc(O)c4c(c2C3=O)C(=O)[C@H](O)[C@](C)(O)C4)O[C@@H]1C
MIC [20]: 2 to 6 µg/mL (≈ 2.78 to 8.35 µM)

CCC(C)CCC[C@H](C(=O)OC)[C@@H](O)c1cccc2nc3c(C(=O)OC)cccc3nc12 (stereo partly drawn)
IC50 [21]: 3.6 µg/mL (≈ 8.21 µM) | IC50 [22]: 3.6 µg/mL (≈ 8.21 µM)

COc1ccc2oc3c4c(c(O)c(O)c3c(=O)c2c1O)CCc1cc2c(c(O)c1-4)C(=O)N1[C@@](C)(CO)C(=O)O[C@@]1(C)C2
MIC [23]: ≤ 1 µg/mL | MIC [24]: ≤ 1 µg/mL | MIC [25]: ≤ 1 µg/mL | MIC [26]: ≤ 1 µg/mL

CC(C)=CCC/C(C)=C/C[C@]1(O)C(=O)c2cc(O)cc(O)c2C(=O)[C@@]1(Cl)CC=C(C)C
MIC [2]: ≤ 2 µg/mL | MIC [27]: ≤ 2 µg/mL | MIC [3]: ≤ 2 µg/mL

CC1(C)OC2=C(C[C@H]1Cl)C(=O)c1c(O)cc(O)cc1C2=O
MIC [2]: 4 to 32 µg/mL (≈ 13 to 104 µM) | MIC [27]: 4 to 32 µg/mL (≈ 13 to 104 µM) | MIC [3]: 4 to 32 µg/mL (≈ 13 to 104 µM)

C=C1CC[C@H](Br)C(C)(C)[C@@H]1C[C@@]12OC(C)(C)[C@H](Cl)C[C@]1(Cl)C(=O)c1c(O)cc(O)cc1C2=O
MIC [2]: ≤ 0.5 µg/mL | MIC [27]: ≤ 0.5 µg/mL | MIC [3]: ≤ 0.5 µg/mL

COc1ccc2oc3c4c(c(O)c(O)c3c(=O)c2c1O)CCc1cc2c(c(O)c1-4)C(=O)N1[C@@](C)(C2)OC(=O)[C@]1(C)CO
MIC [23]: ≤ 1 µg/mL | MIC [24]: ≤ 1 µg/mL | MIC [25]: ≤ 1 µg/mL | MIC [26]: ≤ 1 µg/mL

CC(C)=CCC/C(C)=C/C[C@@]12OC(C)(C)[C@H](Cl)C[C@]1(Cl)C(=O)c1c(O)cc(O)cc1C2=O
MIC [2]: ≤ 2 µg/mL | MIC [27]: ≤ 2 µg/mL | MIC [3]: ≤ 2 µg/mL

Cc1c2oc3c(C)ccc(C(=O)N[C@@H]4C(=O)N[C@H](C(C)C)C(=O)N5CCC[C@H]5C(=O)N(C)CC(=O)N(C)[C@@H](C(C)C)C(=O)O[C@@H]4C)c3nc-2c(C(=O)N[C@@H]2C(=O)N[C@H](C(C)C)C(=O)N3CC(=O)C[C@H]3C(=O)N(C)CC(=O)N(C)[C@@H](C(C)C)C(=O)O[C@@H]2C)c(N)c1=O (I: T[dV][Pro(4-oxo)][Sar][NMeV] / II: T[dV]P[Sar][NMeV]; ester I:1-I:C, II:1-II:C; linker I:N-II:N via Actinocin(1to9))
MIC [17]: 1 to 8 µg/mL (≈ 0.788 to 6.3 µM)

C[C@@H]1CCC/C=C/[C@@H]2O[C@H](C[C@@H](O)C/C=C\C=C\[C@H](O[C@@H]3O[C@H](CO)[C@@H](O)[C@H](O)[C@H]3O)C/C=C/C=C\C(=O)O1)[C@H]2O
MIC [10]: 0.02 to 0.13 µg/mL (≈ 0.0344 to 0.224 µM) | MIC [11]: 0.02 to 0.13 µg/mL (≈ 0.0344 to 0.224 µM) | MIC [12]: 0.02 to 0.13 µg/mL (≈ 0.0344 to 0.224 µM) | MIC [13]: 0.02 to 0.13 µg/mL (≈ 0.0344 to 0.224 µM)
